The results in this text go back to patent US7939532B2, “Heterocyclyl pyridyl sulfonamide derivatives, their manufacture and use as pharmaceutical agents” (Hoffmann-La Roche Inc., priority 2006, dated 2011).

Structures are written as SMILES. Counter-ions that a name gives are not always drawn.

In this assay the test system is HCT 116 cells (human colon carcinoma, ATCC-No. CCl-247). The assay can be described thus: CellTiter-Glo Luminescent Cell Viability Assay in HCT 116 cells. The following applies: HCT 116 cell viability, CellTiter-Glo (ATP luminescence), 5 days (120 h) incubation, 10 concentrations 30 μM to 0.0015 μM, triplicate. The format is cell-based. An excerpt: CellTiter-Glo™ Assay in HCT 116 Cells
The CellTiter-Glo™ Luminescent Cell Viability Assay (Promega) is a homogeneous method of determining the number of viable cells in culture based on quantitation of the ATP present, which signals the presence of metabolically active cells.
HCT 116 cells (human colon carcinoma, ATCC-No. CCl-247) were cultivated in RPMI 1640 medium with GlutaMAX™ I (Invitrogen, Cat-No. 61870-010), 5% Fetal Calf Serum (FCS, Sigma Cat-No. F4135 (FBS)); 100 Units/ml penicillin/100 μg/ml streptomycin (=Pen/Strep from Invitrogen Cat. No. 15140). For the assay the cells were seeded in 384 well plates, 1000 cells per well, in the same medium. The next day the test compounds were added in various concentrations ranging from 30 μM to 0.0015 μM (10 concentrations, 1:3 diluted). After 5 days the CellTiter-Glo™ assay was done according to the instructions of the manufacturer (CellTiter-Glo™ Luminescent Cell Viability Assay, from Promega). In brief the cell-plate was equilibrated to room temperature for approximately 30 minutes and than the CellTiter-Glo™ reagent was added. The contents were carefully mixed for 15 minutes to induce cell lysis. After 45 minutes the luminescent signal was measured in Victor 2, (scanning multiwell spectrophotometer, Wallac).
• Medium: RPMI 1640 with GlutaMAX™ I (Invitrogen, Cat-Nr. 61870), 5% FCS (Sigma Cat.-No. F4135), Pen/Strep (Invitrogen, Cat No. 15140). • HCT116 (ATCC-No. CCl-247): 1000 cells in 60 μl per well of 384 well plate (Greiner 781098, μClear-plate white) • After seeding incubate plates 24 h at 37° C., 5% CO2 2nd. Day: Induction (Treatment with Compounds, 10 Concentrations):
In order to achieve a final concentration of 30 μM as highest concentration 3.5 μl of 10 mM compound stock solution were added directly to 163 μl media. Then step e) of the dilution procedure described below, was followed.
For orientation: In ATP-based viability assays light output follows the ATP content of the culture.

Broadly, the IC50 is the point on the concentration scale where inhibition reaches its midpoint.

In turn, `O=C(NS(=O)(=O)c1ccc(N2CCN(c3ccccn3)CC2)nc1)c1ccc(Cl)cc1Cl` [Example 1-1, 6-(4-Pyridin-2-yl-piperazin-1-yl)-pyridine-3-sulfonic acid 2,4-dichloro-benzoylamide; ammonium salt] had an IC50 of 3.35 µM.

For the compound `O=C(NS(=O)(=O)c1ccc(N2CCC3(CC2)OCCCO3)nc1)c1ccc(Cl)cc1C(F)(F)F` [Example 1-2, 6-(1,5-Dioxa-9-aza-spiro[5.5]undec-9-yl)-pyridine-3-sulfonic acid 4-chloro-2-trifluoromethyl-benzoylamide; ammonium salt], the IC50 amounted to 4.28 µM.

As for `Cc1cccc(N2CCN(c3ccc(S(=O)(=O)NC(=O)c4ccc(F)cc4C(F)(F)F)cn3)CC2)c1` [Example 1-3, 6-(4-m-Tolyl-piperazin-1-yl)-pyridine-3-sulfonic acid 4-fluoro-2-trifluoromethyl-benzoylamide; sodium salt], the IC50 is 1 to 10 µM. As for `COc1cc(Cl)ccc1C(=O)NS(=O)(=O)c1ccc(N2CCN(c3ccccc3)CC2)nc1` [Example 1-4, 6-(4-Phenyl-piperazin-1-yl)-pyridine-3-sulfonic acid 4-chloro-2-methoxy-benzoylamide], the IC50 lay within 1 to 10 µM. `O=C(NS(=O)(=O)c1ccc(N2CCN(c3ccccn3)CC2)nc1)c1ccc(F)cc1Cl` [Example 1-5, 6-(4-Pyridin-2-yl-piperazin-1-yl)-pyridine-3-sulfonic acid 2-chloro-4-fluoro-benzoylamide; ammonium salt] showed an IC50 of 1 to 10 µM. With `O=C(NS(=O)(=O)c1ccc(N2CCN(c3ccccn3)CC2)nc1)c1ccc(F)cc1C(F)(F)F` [Example 1-6, 6-(4-Pyridin-2-yl-piperazin-1-yl)-pyridine-3-sulfonic acid 4-fluoro-2-trifluoromethyl-benzoylamide; ammonium salt], the 50% inhibitory concentration (IC50) lay within 1 to 10 µM. For the compound `O=C(NS(=O)(=O)c1ccc(N2CCN(c3ccc(F)cc3)CC2)nc1)c1ccc(F)cc1C(F)(F)F` [Example 1-7, 6-[4-(4-Fluoro-phenyl)-piperazin-1-yl]-pyridine-3-sulfonic acid 4-fluoro-2-trifluoromethyl-benzoylamide; ammonium salt], the IC50 lay within 1 to 10 µM. `COc1cc(Cl)ccc1C(=O)NS(=O)(=O)c1ccc(N2CCN(c3ccccc3OC)CC2)nc1` [Example 1-8, 6-[4-(2-Methoxy-phenyl)-piperazin-1-yl]-pyridine-3-sulfonic acid 4-chloro-2-methoxy-benzoylamide; ammonium salt] showed an IC50 of 1 to 10 µM. For the compound `COc1ccc(N2CCN(c3ccc(S(=O)(=O)NC(=O)c4ccc(Cl)cc4C(F)(F)F)cn3)CC2)cc1` [Example 1-9, 6-[4-(4-Methoxy-phenyl)-piperazin-1-yl]-pyridine-3-sulfonic acid 4-chloro-2-trifluoromethyl-benzoylamide], the IC50 fell in the range of 1 to 10 µM. The compound `O=C(NS(=O)(=O)c1ccc(N2CCN(c3ccccc3)CC2)nc1)c1ccc(F)cc1Cl` [Example 1-10, 6-(4-Phenyl-piperazin-1-yl)-pyridine-3-sulfonic acid 2-chloro-4-fluoro-benzoylamide] gave an IC50 of 1 to 10 µM. `COc1cc(Cl)ccc1C(=O)NS(=O)(=O)c1ccc(N2CCN(c3ccc(F)cc3)CC2)nc1` [Example 1-11, 6-[4-(4-Fluoro-phenyl)-piperazin-1-yl]-pyridine-3-sulfonic acid 4-chloro-2-methoxy-benzoylamide] returned an IC50 of 1.25 µM. The figure for `COc1cc(Cl)ccc1C(=O)NS(=O)(=O)c1ccc(N2CCC3(CC2)OCCCO3)nc1` [Example 1-12, 6-(1,5-Dioxa-9-aza-spiro[5.5]undec-9-yl)-pyridine-3-sulfonic acid 4-chloro-2-methoxy-benzoylamide] is 1 to 10 µM. In turn, `COc1ccccc1N1CCN(c2ccc(S(=O)(=O)NC(=O)c3ccc(Cl)cc3C(F)(F)F)cn2)CC1` [Example 1-13, 6-[4-(2-Methoxy-phenyl)-piperazin-1-yl]-pyridine-3-sulfonic acid 4-chloro-2-trifluoromethyl-benzoylamide] came in with an IC50 of 1 to 10 µM. The figure for `COc1ccccc1N1CCN(c2ccc(S(=O)(=O)NC(=O)c3ccc(F)cc3Cl)cn2)CC1` [Example 1-14, 6-[4-(2-Methoxy-phenyl)-piperazin-1-yl]-pyridine-3-sulfonic acid 2-chloro-4-fluoro-benzoylamide; sodium salt] is 1 to 10 µM; for `O=C(NS(=O)(=O)c1ccc(N2CCN(c3ccccc3)CC2)nc1)c1ccc(Cl)cc1Cl` [Example 1-15, 6-(4-Phenyl-piperazin-1-yl)-pyridine-3-sulfonic acid 2,4-dichloro-benzoylamide; sodium salt] it is 1 to 10 µM. Consider `O=C(NS(=O)(=O)c1ccc(N2CCN(c3ccc(F)cc3)CC2)nc1)c1ccc(Cl)cc1Cl` [Example 1-16, 6-[4-(4-Fluoro-phenyl)-piperazin-1-yl]-pyridine-3-sulfonic acid 2,4-dichloro-benzoylamide; sodium salt], for which the IC50 is 1 to 10 µM. For the compound `O=C(NS(=O)(=O)c1ccc(N2CCN(c3ccc(F)cc3)CC2)nc1)c1ccc(F)cc1Cl` [Example 1-17, 6-[4-(4-Fluoro-phenyl)-piperazin-1-yl]-pyridine-3-sulfonic acid 2-chloro-4-fluoro-benzoylamide; sodium salt], the IC50 fell in the range of 1 to 10 µM.

`O=C(NS(=O)(=O)c1ccc(N2CCN(c3ccccc3)CC2)nc1)c1ccc(F)cc1C(F)(F)F` [Example 1-18, 6-(4-Phenyl-piperazin-1-yl)-pyridine-3-sulfonic acid 4-fluoro-2-trifluoromethyl-benzoylamide; sodium salt] displayed an IC50 of 1 to 10 µM. `O=C(NS(=O)(=O)c1ccc(N2CCN(c3ccccc3F)CC2)nc1)c1ccc(F)cc1C(F)(F)F` [Example 1-19, 6-[4-(2-Fluoro-phenyl)-piperazin-1-yl]-pyridine-3-sulfonic acid 4-fluoro-2-trifluoromethyl-benzoylamide; sodium salt] registered an IC50 of 1 to 10 µM. Turning to `O=C(NS(=O)(=O)c1ccc(N2CCN(c3ccc(F)cc3F)CC2)nc1)c1ccc(F)cc1C(F)(F)F` [Example 1-20, 6-[4-(2,4-Difluoro-phenyl)-piperazin-1-yl]-pyridine-3-sulfonic acid 4-fluoro-2-trifluoromethyl-benzoylamide; sodium salt], the IC50 lay within 1 to 10 µM.
